Measured values as given in US7276531B2, “G-lactam derivatives as prostaglandin agonists” (Applied Research Systems ARS Holding N.V., priority 2003, dated 2007).

Legend:
[1] = tested on: mature mouse ovulation induction model; experiment: In vivo ovulation assay (mature mouse ovulation induction model)
Description: Ovulation induction activity of compounds of the invention was tested in a mature mouse ovulation induction model.
Mature 10-week-old CD-mice were used. Reagents were prepared as follows: PMSG (pregnant mare serum gonadotropin) (Calbiochem, cat #367222) and hCG (Serono) are diluted in PBS. PGE2 (Cayman, Ann Arbor Mich.) was dissolved in ethanol and diluted with 0.154 M […] Buffer (pH 8.0) to final concentration of ethanol of less than 3 percent. A compound of the invention (based on solubility) was pre-dissolved in ethanol, DMSO or other reagents. The compound of the invention was then diluted with saline or other diluents such as PBS or NP3S (5% N-methyl-pyrrolidinone/30% PEG400/25% PEG200/20% Propylene Glycol in saline). PMSG stimulates ovarian follicular development. After PMSG stimulation, the mature follicules can be stimulated to rupture and release oocytes by an ovulation trigger, such as hCG or a compound of the invention.
The following test protocol is employed for the test animals (typically 5 animals per test group). • Day 1: Inject 5 IU PMSG in 200 μl PBS (i.p. 15:00 PM) • Day 2: No administration • Day 3: Injection of ovulation trigger hCG (i.p.) or hCG replacement (PGE2 or compound of the invention, s.c., i.v. or oral route), 15:00 PM • Day 4: Eighteen hours after injections of the ovulation triggers, animals were sacrificed by CO2 asphyxiation and abdominal cavities were opened using fine scissors and forceps. Uterus, oviducts and ovaries were collected and placed in pre-labeled dishes containing phosphate buffered saline (PBS). The collected tissues were transferred to the laboratory and intact oviduct carefully dissected out from uterus and ovary under the dissection microscope. The dissected oviducts were placed on the glass microscopic slide and covered with another slide. Two slides were taped on two edges. The numbers of ovulated ova in the oviducts were counted using upright microscope with 4× objective and recorded. […]

[2] = tested on: aspirin-induced gastric ulceration; experiment: In vivo inhibition of aspirin-induced gastric ulceration; conditions: rats
Source text: The activity of compounds of the invention as protective agents against gastric ulceration can be assayed as follows and as described in Guth et al., 1979. […]
Four hours later, animals are sacrificed and gastric ulceration is scored for degree of hemorrhage and severity of ulcerative lesions as follows: 0=no hyperemia or bleeding, 1=hyperaemia, 2=slight spot bleeding, 3=hyperemia plus slight spot bleeding, 4=hyperemia plus spot bleeding within entire stomach. Reduction of concurrent control score values by 50 percent or more (≧50%) is considered significant.

[3] = tested on: Dextran Sodium Sulfate-induced colitis; experiment: In vivo inhibition of Dextran Sodium Sulfate-induced colitis; conditions: 0.1 mg/kg p.o. daily at days 3, 4, 5 and 6, DSS 4% mice
Source text: The anti-inflammatory activity of compounds of the invention in colitis can be assayed as follows.
Within 6-10 days after ingesting Dextran Sodium Sulfate (DSS) mice show sign of diarrhea, rectal bleeding and weight loss and colonic mucosal lesions include multiple erosion, ulceration, and marked inflammatory cell infiltration.
Ulcerative colitis (UC) was induced in female mice (Balb/c, 20-22 g, Elevage Janvier) by Dextran Sodium Sulfate (DSS 4%) administered in drinking water. The mice had free access to DSS during 5 days.
The compounds of the invention were solubilized in […] and administered by gavage at days 3, 4, 5 and 6 after the induction of the UC.
The “treated group” wherein the animals have free access to DDS and are treated each day with compounds of the invention.
The “Dextran 4%” group wherein the animals have free access to DDS 4% and 0.5% CMC/O0.25% tween (vehicle) and are not treated.
• The body weight was determined daily. • The severity of the UC was assessed by a clinical score estimating the constituency of the stool (0=firm, 1=loose, 2=diarrhea) and the presence of blood (0=no blood, 1=occult blood, 2=gross rectal bleeding). • Seven days after the induction of the disease, the animals were sacrificed. The length and the weight of the colon were determined and the ratio Length/Weight/100 g body weight was calculated.
The percentages of inhibition of weight loss, of clinical scores and of increase in the ratio colon length/weight, are calculated as follows: % inhibition=(1−(“value for treated group”−“value for control group”/”value for Dextran 4% group”−“value for control group))*100.
The percentages of inhibition are calculated for each days 5, 6 and 7 for each parameter.

## CCCC/C(C)=C/C=C\[C@H]1CCC(=O)N1CCc1ccc(C(=O)O)cc1 [Example 3, 4-(2-{(2R)-2-[(1Z,3E)-4-methylocta-1,3-dienyl]-5-oxopyrrolidin-1-yl}ethyl)benzoic acid]
[1]; Mus musculus, po, read-out: calculated ED50 (dose of drug which produces 50% of its effect), ovulation, p.o. administration route, mice
  ED50: 1 mg/kg
[1]; oral administration, 20 mg/kg, mature mice
  number of ova released (average): 20
[2]; 10 mg/kg administered orally
  percentage of protection (gastric ulceration): 65%
[2]; aspirin 150 mg/kg oral gavage
  Ulceration scores: decreased in a dose-dependent manner
[3]
  improved clinical score, increase compared to non-treated animals: 40%
  increased colon weight/length, increase compared to non-treated animals: 36%
  inhibition of loss of body-weight compared to non-treated animals: 39%
